Experimental data from US20260265175A1, “METHOD FOR OBTAINING ORGANIC ACIDS FROM AN AQUEOUS MOTHER LIQUOR” (Covestro Deutschland AG, priority 2022, published 2026).

Columns and labels:
[1] = Cu(OH)2 roughly stoichiometric, pH 4.5, starting solution 12 g/L
[2] = Precipitation of 2-aminobenzoic acid (oAB) from aqueous solution as metal compound; residual oAB in supernatant by HPLC; assay type: physicochemical; settings: value is the detection limit
Excerpt: The pH was adjusted to about 3.5 with a 1M NaOH solution (corresponding to the isoelectric point of oAB). […] The solid (Cu(oAB)2, Fe(oAB)2 and/or Mn(oAB)2) was separated from the liquid phase by centrifugation.

Compound: O=C(O)CCCCC(=O)O [adipic acid, Adipic acid]
- adipic acid concentration in liquid phase after precipitation with recycled Cu(OH)2 (sample C) [1]: 3 g/L

Compound: Nc1ccccc1C(=O)O [oAB, 2-Aminobenzoic acid]
- oAB concentration in aqueous supernatant after precipitation of the metal compound of the organic acid (sample A) ([2]; CuSO4, FeSO4 or MnSO4, metal salt:oAB 1:2, pH about 3.5, room temperature, starting solution 5 g/L): < 0.05 goAB/L
- oAB concentration in liquid phase after precipitation with recycled metal hydroxide (sample C) ([2]; after addition both of Fe(OH)2 and Cu(OH)2, pH 3.5, starting solution 5 g/L): < 0.05 goAB/L
